How the values were obtained:
Format in all cases: in vivo
Spodoptera frugiperda = Spodoptera frugiperda test (sprayed cabbage leaves); conditions: mortality of caterpillars on cabbage leaves
Experimental: (§1) Solvent: 7 parts by weight of dimethylformamide Emulsifier: 2 parts by weight of alkylaryl polyglycolether
(§2) To produce a suitable preparation of active compound, 1 part by weight of active compound is mixed with the stated amount of solvent and emulsifier, and the concentrate is diluted with emulsifier-containing water to the desired concentration.
Cabbage leaves (Brassica oleracea) are treated by being sprayed into the preparation of the active compound of the desired concentration and are infested with larvae of the fall army worm (Spodoptera frugiperda) as long as the leaves are still moist.
After the specified period of time, the mortality in % is determined. 100% means that all the caterpillars have been killed; 0% means that none of the caterpillars have been killed.

Nilaparvata lugens = Nilaparvata lugens test (sprayed rice plants); conditions: mortality of hopper larvae on rice
Experimental: as §1, §2
Rice plants (Oryza sativa) are treated by being sprayed with the preparation of the active compound at the desired concentration and are infested with larvae of the Brown plant hopper (Nilaparvata lugens) as long as the leaves are still moist.
After the specified period of time, the mortality in % is determined. 100% means that all the hopper larvae have been killed; 0% means that none of the hopper larvae have been killed.

[1] = tested on: Blumeria graminis f sp. hordei; assay: Blumeria test (barley)/SAR 5d; conditions: 1000 ppm, inoculated 5 days after spraying, evaluated 7 days after inoculation
Experimental: Solvent: 50 parts by weight of n,n-dimethylacetamid Emulsifier: 1 part by weight of alkylaryl polyglycol ether
To produce a suitable preparation of active compound, 1 part by weight of active compound or active compound combination is mixed with the stated amounts of solvent and emulsifier, and the concentrate is diluted with water to the desired concentration.
To test for systemic activated resistance, young plants are sprayed with the preparation of active compound or active compound combination at the stated rate of application. After the spray coating has dried on, the plants are placed in a greenhouse at a temperature of approximately 18° C. and a relative atmospheric humidity of approximately 80%.
5 days after spraying, the plants are dusted with spores of Blumeria graminis f sp. hordei. The plants then remain in a greenhouse at a temperature of approximately 18° C. and a relative atmospheric humidity of approximately 80% to promote the development of mildew pustules.
The test is evaluated 7 days after the inoculation, 1. and 2. leaf separated. 0% means an efficacy with corresponds to that of the control while an efficacy of 100% means that no disease is observed.

Phaedon cochleariae = Phaedon cochleariae test (sprayed cabbage leaves); conditions: mortality of beetle larvae on cabbage leaves
Experimental: as §1, §2
Cabbage leaves (Brassica oleracea) are treated by being sprayed with the preparation of the active compound at the desired concentration and are infested with larvae of the mustard beetle (Phaedon cochleariae) as long as the leaves are still moist.
After the specified period of time, the mortality in % is determined. 100% means that all the beetle larvae have been killed; 0% means that none of the beetle larvae have been killed.

N#Cc1ccccc1NC(=O)c1snc(Cl)c1Cl [Isotianil, 3,4-dichloro-N-(2-cyanophenyl)-5-isothiazolecarboxamide]
Efficacy in % after 6d (Spodoptera frugiperda; 200 ppm): 0%

N#C/N=C1\SCCN1Cc1ccc(Cl)nc1 [Thiacloprid, thiacloprid]
Efficacy in % after 3d (Nilaparvata lugens; 4 ppm): 0%

CC[S+]([O-])c1c(C#N)nn(-c2c(Cl)cc(C(F)(F)F)cc2Cl)c1N (stereo not shown) [Ethiprole, ethiprole]
Efficacy in % after 3d (Nilaparvata lugens; 0.16 ppm): 0%
Efficacy in % ([1]; 1st leaf): 22%
Efficacy in % ([1]; 2nd leaf): 22%

CN/C(=N\[N+](=O)[O-])NCc1cnc(Cl)s1 [Clothianidin, clothianidin]
Efficacy in % after 3d (Nilaparvata lugens; 0.032 ppm): 55%
Efficacy in % after 3d (Nilaparvata lugens; 0.8 ppm): 70%
Efficacy in % after 6d (Spodoptera frugiperda; 8 ppm): 25%
Efficacy in % after 6d (Phaedon cochleariae; 0.16 ppm): 0%

N#Cc1nn(-c2c(Cl)cc(C(F)(F)F)cc2Cl)c(N)c1[S+]([O-])C(F)(F)F (stereo not shown) [Fipronil, fipronil]
Efficacy in % after 3d (Nilaparvata lugens; 0.032 ppm): 0%
Efficacy in % after 3d (Nilaparvata lugens; 20 ppm): 70%
Efficacy in % after 6d (Spodoptera frugiperda; 8 ppm): 65%
Efficacy in % after 6d (Phaedon cochleariae; 0.032 ppm): 0%

— patent US20110160052A1, “Active Compound Combinations” (Bayer CropScience AG, priority 2007, published 2011)
